Data as given in PubChem BioAssay (NCI).
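Where inhibition never reached the appropriate level, the endpoint shown equals the highest concentration tested. Otherwise, values were interpolated linearly from a five-concentration, 48-hour dose response in 96-well plates. Here, GI50 denotes the concentration required for 50% inhibition of growth. TGI: total growth inhibition.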

Experiments:
Assay in all cases: NCI anticancer screen, dose series, 48 h
786-0 renal = system: 786-0 renal
A498 renal = system: A498 renal
A549 NSCLC = system: A549 NSCLC
ACHN renal = system: ACHN renal
BT-549 breast = system: BT-549 breast
CAKI-1 renal = system: CAKI-1 renal
CCRF-CEM leukemia = system: CCRF-CEM leukemia
COLO 205 colon = system: COLO 205 colon
DU-145 prostate = system: DU-145 prostate
EKVX NSCLC = system: EKVX NSCLC
HCC-2998 colon = system: HCC-2998 colon
HCT-116 colon = system: HCT-116 colon
HCT-15 colon = system: HCT-15 colon
HL-60(TB) leukemia = system: HL-60(TB) leukemia
HOP-62 NSCLC = system: HOP-62 NSCLC
HOP-92 NSCLC = system: HOP-92 NSCLC
HS 578T breast = system: HS 578T breast
HT29 colon = system: HT29 colon
IGROV1 ovarian = system: IGROV1 ovarian
K-562 leukemia = system: K-562 leukemia
KM12 colon = system: KM12 colon
LOX IMVI melanoma = system: LOX IMVI melanoma
M14 melanoma = system: M14 melanoma
MALME-3M melanoma = system: MALME-3M melanoma
MCF7 breast = system: MCF7 breast
MDA-MB-231 breast = system: MDA-MB-231 breast
MDA-MB-435 = system: MDA-MB-435
MOLT-4 leukemia = system: MOLT-4 leukemia
NCI-H226 lung = system: NCI-H226 lung
NCI-H23 lung = system: NCI-H23 lung
NCI-H460 lung = system: NCI-H460 lung
NCI-H522 lung = system: NCI-H522 lung
NCI/ADR-RES ovarian = system: NCI/ADR-RES ovarian
OVCAR-3 ovarian = system: OVCAR-3 ovarian
OVCAR-4 ovarian = system: OVCAR-4 ovarian
OVCAR-5 ovarian = system: OVCAR-5 ovarian
OVCAR-8 ovarian = system: OVCAR-8 ovarian
PC-3 prostate = system: PC-3 prostate
RPMI-8226 leukemia = system: RPMI-8226 leukemia
RXF 393 renal = system: RXF 393 renal
SF-268 CNS = system: SF-268 CNS
SF-295 CNS = system: SF-295 CNS
SF-539 CNS = system: SF-539 CNS
SK-MEL-2 melanoma = system: SK-MEL-2 melanoma
SK-MEL-28 melanoma = system: SK-MEL-28 melanoma
SK-MEL-5 melanoma = system: SK-MEL-5 melanoma
SK-OV-3 ovarian = system: SK-OV-3 ovarian
SN12C renal = system: SN12C renal
SNB-19 CNS = system: SNB-19 CNS
SNB-75 CNS = system: SNB-75 CNS
SR leukemia = system: SR leukemia
SW-620 colon = system: SW-620 colon
TK-10 renal = system: TK-10 renal
U251 CNS = system: U251 CNS
UACC-257 melanoma = system: UACC-257 melanoma
UACC-62 melanoma = system: UACC-62 melanoma
UO-31 renal = system: UO-31 renal

For NC(=O)c1cc2c3ccccc3ccn2c1-c1ccccc1, the GI50 (786-0 renal) was 77.5 nM, the TGI (786-0 renal) was 13600 nM and the GI50 (A498 renal) was 46.8 nM. The TGI (A498 renal) was 7420 nM, the GI50 (A549 NSCLC) was 96.9 nM and the TGI (A549 NSCLC) was 9820 nM. It also gave a GI50 (ACHN renal) of 3170 nM, a TGI (ACHN renal) of 30500 nM and a GI50 (BT-549 breast) of 485 nM. For the same molecule, the TGI (BT-549 breast) was 13100 nM, the GI50 (CAKI-1 renal) was 143 nM and the TGI (CAKI-1 renal) was 3540 nM. It also gave a GI50 (CCRF-CEM leukemia) of 42.5 nM, a TGI (CCRF-CEM leukemia) of 13800 nM and a GI50 (COLO 205 colon) of 454 nM. It also gave a TGI (COLO 205 colon) of 2310 nM, a GI50 (DU-145 prostate) of 71.9 nM and a TGI (DU-145 prostate) of 2540 nM. It also gave a GI50 (EKVX NSCLC) of 396 nM, a TGI (EKVX NSCLC) of 45300 nM and a GI50 (HCC-2998 colon) of 542 nM. For the same molecule, the TGI (HCC-2998 colon) was 9550 nM, the GI50 (HCT-116 colon) was 42.8 nM and the TGI (HCT-116 colon) was 4220 nM. It also gave a GI50 (HCT-15 colon) of 54.3 nM, a TGI (HCT-15 colon) of 11900 nM and a GI50 (HL-60(TB) leukemia) of 242 nM. The TGI (HL-60(TB) leukemia) was 2960 nM, the GI50 (HOP-62 NSCLC) was 446 nM and the TGI (HOP-62 NSCLC) was 18800 nM. For the same molecule, the GI50 (HOP-92 NSCLC) was 17.9 nM, the TGI (HOP-92 NSCLC) was 7770 nM and the GI50 (HS 578T breast) was 63.2 nM. For the same molecule, the TGI (HS 578T breast) was 62600 nM, the GI50 (HT29 colon) was 412 nM and the TGI (HT29 colon) was 9120 nM. For the same molecule, the GI50 (IGROV1 ovarian) was 141 nM, the TGI (IGROV1 ovarian) was 33400 nM and the GI50 (K-562 leukemia) was 120 nM. The TGI (K-562 leukemia) was 11800 nM, the GI50 (KM12 colon) was 39.6 nM and the TGI (KM12 colon) was 3880 nM. The GI50 (LOX IMVI melanoma) was 91.2 nM, the TGI (LOX IMVI melanoma) was 16200 nM and the GI50 (M14 melanoma) was 70.6 nM. For the same molecule, the TGI (M14 melanoma) was 17700 nM, the GI50 (MALME-3M melanoma) was 16700 nM and the TGI (MALME-3M melanoma) was 47900 nM. The GI50 (MCF7 breast) was 59.7 nM, the TGI (MCF7 breast) was 13500 nM and the GI50 (MDA-MB-231 breast) was 662 nM. The TGI (MDA-MB-231 breast) was 17500 nM, the TGI (MDA-MB-435) was over 100000 nM and the GI50 (MOLT-4 leukemia) was 521 nM. For the same molecule, the TGI (MOLT-4 leukemia) was 15900 nM, the GI50 (NCI-H226 lung) was 627 nM and the TGI (NCI-H226 lung) was 25700 nM. For the same molecule, the GI50 (NCI-H23 lung) was 319 nM, the TGI (NCI-H23 lung) was 14400 nM and the GI50 (NCI-H460 lung) was 42 nM. For the same molecule, the TGI (NCI-H460 lung) was 10500 nM, the GI50 (NCI-H522 lung) was 66.6 nM and the TGI (NCI-H522 lung) was 20800 nM. For the same molecule, the GI50 (NCI/ADR-RES ovarian) was 31.7 nM, the TGI (NCI/ADR-RES ovarian) was 91.9 nM and the GI50 (OVCAR-3 ovarian) was 27.2 nM. It also gave a TGI (OVCAR-3 ovarian) of 72 nM, a GI50 (OVCAR-4 ovarian) of 155 nM and a TGI (OVCAR-4 ovarian) of over 54500 nM. It also gave a GI50 (OVCAR-5 ovarian) of 5600 nM, a TGI (OVCAR-5 ovarian) of 36700 nM and a GI50 (OVCAR-8 ovarian) of 93.7 nM. For the same molecule, the TGI (OVCAR-8 ovarian) was 16400 nM, the GI50 (PC-3 prostate) was 37.1 nM and the TGI (PC-3 prostate) was 12600 nM. The GI50 (RPMI-8226 leukemia) was 37.1 nM, the TGI (RPMI-8226 leukemia) was 2310 nM and the GI50 (RXF 393 renal) was 46.2 nM. The TGI (RXF 393 renal) was 2260 nM, the GI50 (SF-268 CNS) was 75.9 nM and the TGI (SF-268 CNS) was 13400 nM. For the same molecule, the GI50 (SF-295 CNS) was 30.4 nM, the TGI (SF-295 CNS) was 1050 nM and the GI50 (SF-539 CNS) was 24.8 nM. It also gave a TGI (SF-539 CNS) of 71.6 nM, a GI50 (SK-MEL-2 melanoma) of 883 nM and a TGI (SK-MEL-2 melanoma) of 40900 nM. It also gave a GI50 (SK-MEL-28 melanoma) of 14700 nM, a TGI (SK-MEL-28 melanoma) of 34500 nM and a GI50 (SK-MEL-5 melanoma) of 39.2 nM. For the same molecule, the TGI (SK-MEL-5 melanoma) was 3140 nM, the GI50 (SK-OV-3 ovarian) was 50.3 nM and the TGI (SK-OV-3 ovarian) was 12700 nM. The GI50 (SN12C renal) was 88.9 nM, the TGI (SN12C renal) was 15200 nM and the GI50 (SNB-19 CNS) was 72.7 nM. The TGI (SNB-19 CNS) was 22100 nM, the GI50 (SNB-75 CNS) was 758 nM and the TGI (SNB-75 CNS) was over 46900 nM. For the same molecule, the GI50 (SR leukemia) was 93.3 nM, the TGI (SR leukemia) was 3750 nM and the GI50 (SW-620 colon) was 35.7 nM. For the same molecule, the TGI (SW-620 colon) was 25000 nM, the GI50 (TK-10 renal) was 719 nM and the TGI (TK-10 renal) was 24000 nM. The GI50 (U251 CNS) was 47.5 nM, the TGI (U251 CNS) was 14200 nM and the GI50 (UACC-257 melanoma) was 11500 nM. It also gave a TGI (UACC-257 melanoma) of 26500 nM, a GI50 (UACC-62 melanoma) of 38.5 nM and a TGI (UACC-62 melanoma) of over 41700 nM. It also gave a GI50 (UO-31 renal) of 708 nM and a TGI (UO-31 renal) of 26300 nM.
